# Results as given in patent publication US4902811A, “Benzodioxane prostacyclin analogs” (Shionogi & Co., Ltd., priority 1987, dated 1990).
# Tested on: hydrochloric acid-ethanol-induced gastric ulcer
# Assay: Effect against hydrochloric acid ethanol-induced gastric ulcer (percent suppression of lesion index, oral)
# Assay type: in vivo, male JCL-SD rats or CRJ-SD rats
# Conditions: JCL-SD rats; oral; 30 μg/kg, 30 min before HCl-ethanol
# Method: To male JCL-SD rats or CRJ-SD rats (weight: 220 g to 260 g) which have been fasted for 24 hours is administered orally 1 ml of 150 mM hydrochloric acid-60% ethanol. After an hour, the stomachs are excised. The ulcer size is determined by measuring the length of each lesion using a stereoscopic microscope and the sum of individual lesion length is expressed as lesion index. The vehicle (1% to 10% ethanol) and the test compounds are administered orally 30 minutes before the hydrochloric acid-ethanol administration. The percent suppression is calculated from the lesion indexes of treated versus non-treated animals.
row,Structure (SMILES),Percent Suppression (P.S.) [%]
1,CCCCC(C)CC(O)C=CC1C(O)CC2Oc3c(OCC(=O)O)cccc3OC21 (centres unmarked) [Ibd-b],74
2,CCCCC(C)CC(O)C=CC1C(O)CC2Oc3c(OCC(=O)OC)cccc3OC21 (centres unmarked) [Ibe-a],96
3,CCCCC(C)CC(O)CCC1C(O)CC2Oc3c(OCC(=O)OC)cccc3OC21 (centres unmarked) [Ife-a],91
4,CCCCC(C)CC(O)CCC1C(O)CC2Oc3c(OCC(=O)OC)cccc3OC21 (centres unmarked) [Ifd-a],66
5,CCCCC(C)CC(O)C=CC1C(O)CC2Oc3c(OCC(=O)OC)cccc3OC21 (centres unmarked) [Idd-a],32
6,CCCCC(C)CC(O)C=CC1C(O)CC2Oc3c(OCC(=O)OC)cccc3OC21 (centres unmarked) [Ide-a],37
7,COC(=O)COc1cccc2c1OC1CC(O)C(C=CC(O)CC(C)CCC=C(C)C)C1O2 (centres unmarked) [Ibl-a],64
8,CC(C)=CCCC(C)CC(O)C=CC1C(O)CC2Oc3c(OCC(=O)O)cccc3OC21 (centres unmarked) [Ibl-b],83
9,CCCCC(C)CC(O)C=CC1C(O)CC2Oc3c(OCC(=O)OC)cccc3OC21 (centres unmarked) [Ibd-a],91

# Same assay, conditions: Rattus norvegicus, po, 1 h, CRJ-SD rats; oral; 30 μg/kg, 30 min before HCl-ethanol; read-out: Percent Suppression (P.S.)
row,Structure (SMILES),inhibition in vivo at 0.03 mg/kg [%]
1,CCCCC(C)CC(O)C=CC1C(O)CC2Oc3c(OCC(=O)OC)cccc3OC21 (centres unmarked) [Ibe-a],99

# Same assay, conditions: Rattus norvegicus, po, 1 h, JCL-SD rats; oral; 30 μg/kg, 30 min before HCl-ethanol; read-out: Percent Suppression (P.S.)
row,Structure (SMILES),inhibition in vivo at 0.03 mg/kg [%]
1,COC(=O)COc1cccc2c1OC1CC(O)C(C=CC(O)CC(C)Oc3ccccc3)C1O2 (centres unmarked) [Ibm-a],58
2,CCCCC(C)(C)[C@@H](O)/C=C/[C@H]1[C@@H]2Oc3cccc(OCC(=O)OC)c3O[C@@H]2C[C@@H]1O (relative stereo) [Ibg-a],15
3,CCCCC[C@@H](O)/C=C/[C@H]1[C@@H]2Oc3cccc(OCC(=O)OC)c3O[C@@H]2C[C@@H]1O (relative stereo) [Iba-a],36
4,COC(=O)COc1cccc2c1OC1CC(O)C(C=CC(O)CC(C)COc3ccccc3)C1O2 (centres unmarked) [Ibo-a],63
5,COC(=O)COc1cccc2c1O[C@@H]1C[C@H](O)[C@@H](CC[C@H](O)CC3CCCCC3)[C@@H]1O2 (relative stereo) [Ifj-a],25
6,CC(C)=CCCC(C)CC(O)C=CC1C(O)CC2Oc3c(OCC(=O)O)cccc3OC21 (centres unmarked) [Ibk-b],70
7,CCC#CCC[C@@H](O)/C=C/[C@H]1[C@@H]2Oc3cccc(OCC(=O)OC)c3O[C@@H]2C[C@@H]1O (relative stereo) [Ibc-a],29
8,COC(=O)COc1cccc2c1O[C@@H]1C[C@H](O)[C@@H](/C=C/[C@H](O)C3CCCC3)[C@@H]1O2 (relative stereo) [Ibi-a],41
9,"CCCCC[C@@H](O)CC[C@H]1[C@@H]2Oc3cccc(OCC(=O)OC)c3O[C@@H]2C[C@@H]1O (relative stereo) [Ifa-a, methyl[(1R*,2S*,3aR*,9aS*)-2-hydroxy-1-[(R*)-3-hydroxyoctyl]-2,3,3a,9a-tertahydro-1H-cyclopenta[b][1,4]benzodioxin-5-oxyacetate]",27
10,COC(=O)COc1cccc2c1O[C@@H]1C[C@H](O)[C@@H](CC[C@H](O)C3CCCCC3)[C@@H]1O2 (relative stereo) [Ifb-a],78
11,COC(=O)COc1cccc2c1OC1CC(O)C(C=CC(O)CC(C)CCC=C(C)C)C1O2 (centres unmarked) [Ibk-a],81
12,"CCCCC[C@H](O)/C=C/[C@H]1[C@@H]2Oc3cccc(OCC(=O)OC)c3O[C@@H]2C[C@@H]1O (relative stereo) [Ida-a, methyl [(1R*,2S*,3aR*,9aS*)-2-hydroxy-1-[(3S*,1E)-3-hydroxy-1-octenyl]-2,3,3a,9a-tetrahydro-1H-cyclopenta[b][1,4]benzodioxin-5-yl]oxyacetate]",37
13,O=C(O)COc1cccc2c1O[C@@H]1C[C@H](O)[C@@H](/C=C/[C@H](O)C3CCCCC3)[C@@H]1O2 (relative stereo) [Ibb-b],25
14,CCC#CCC[C@@H](O)/C=C/[C@H]1[C@@H]2Oc3cccc(OCC(=O)O)c3O[C@@H]2C[C@@H]1O (relative stereo) [Ibc-b],14
15,COC(=O)COc1cccc2c1O[C@@H]1C[C@H](O)[C@@H](CC[C@H](O)C3CCCC3)[C@@H]1O2 (relative stereo) [Ifi-a],52
16,CCCCC(C)CC(O)C=CC1C(O)CC2Oc3c(OCC(=O)O)cccc3OC21 (centres unmarked) [Ibe-b],80
17,COC(=O)COc1cccc2c1O[C@@H]1C[C@H](O)[C@@H](/C=C/[C@H](O)C3CCCCC3)[C@@H]1O2 (relative stereo) [Ibb-a],63
18,O=C(O)COc1cccc2c1O[C@@H]1C[C@H](O)[C@@H](/C=C/[C@@H](O)C3CCCCC3)[C@@H]1O2 (relative stereo) [Idb-b],25
19,O=C(O)COc1cccc2c1O[C@@H]1C[C@H](O)[C@@H](CC[C@H](O)C3CCCCC3)[C@@H]1O2 (relative stereo) [Ifb-b],75

# Same assay, conditions: Rattus norvegicus, po, 1 h, JCL-SD rats; oral; 100 μg/kg, 30 min before HCl-ethanol; read-out: Percent Suppression (P.S.)
row,Structure (SMILES),inhibition in vivo at 0.1 mg/kg [%]
1,"CCCCC[C@@H](O)/C=C/[C@H]1[C@@H]2Oc3cccc(OCC(=O)O)c3O[C@@H]2C[C@@H]1O (relative stereo) [Iba-b, [(1R*,2S*,3aR*,9aS*)-2-hydroxy-1-[(3R*,1E)-3-hydroxy-1-octenyl]-2,3,3a,9a-tetrahydro-1H-cyclopenta[b][1,4]benzodioxin-5-yl]oxyacetic acid]",30
2,"CCCCC[C@H](O)/C=C/[C@H]1[C@@H]2Oc3cccc(OCC(=O)O)c3O[C@@H]2C[C@@H]1O (relative stereo) [Ida-b, [(1R*,2S*,3aR*,9aS*)-2-hydroxy-1-[(3S*,1E)-3-hydroxy-1-octenyl]-2,3,3a,9a-tetrahydro-1H-cyclopenta[b][1,4]benzodioxin-5-yl]oxyacetic acid]",19

# Same assay, conditions: reference compound; 300 μg/Kg; strain not stated
row,Structure (SMILES),Percent Suppression (P.S.) [%]
1,"CCCCC[C@H](O)/C=C/[C@@H]1[C@H]2CC(SCCCC(=O)OC)=N[C@H]2C[C@H]1O [Hoe892, reference compound]",28
